Experimental data from the NIST ThermoML archive (doi:10.1016/j.jct.2012.05.003).

Experiments:
[1] = Molar enthalpy of transition or fusion; details: Crystal; Adiabatic calorimetry
[2] = molar heat capacity at saturation pressure; details: Vacuum adiabatic calorimetry

O=C1c2ccccc2-c2ccccc21 [9(9H)-fluorenone]
Details | Molar enthalpy of transition or fusion [kcal/mol]
[1] | 3.9101

molar heat capacity [J/K/mol], [2]
Details | Crystal | Liquid
4.566 K | 0.46 | –
5 K | 0.6 | –
5.528 K | 0.77 | –
6.434 K | 1.22 | –
7.474 K | 1.88 | –
8.581 K | 2.71 | –
9.685 K | 3.71 | –
10 K | 4.02 | –
10.85 K | 4.87 | –
12.11 K | 6.26 | –
13.44 K | 7.86 | –
14.97 K | 9.678 | –
16.65 K | 11.82 | –
18.49 K | 14.15 | –
20 K | 16.01 | –
20.45 K | 16.55 | –
22.62 K | 19.26 | –
25.08 K | 22.19 | –
27.79 K | 25.34 | –
30 K | 27.82 | –
30.74 K | 28.64 | –
33.98 K | 32.05 | –
37.55 K | 35.61 | –
40 K | 37.94 | –
41.59 K | 39.4 | –
46.13 K | 43.45 | –
50 K | 46.83 | –
51.2 K | 47.85 | –
56.87 K | 52.2 | –
56.9 K | 52.18 | –
60 K | 54.38 | –
62.55 K | 56.09 | –
62.62 K | 56.16 | –
68.7 K | 60.3 | –
70 K | 61.14 | –
72.85 K | 62.96 | –
75.63 K | 64.74 | –
80 K | 67.46 | –
83.16 K | 69.38 | –
84.2 K | 70.02 | –
90 K | 73.43 | –
91.53 K | 74.32 | –
92.55 K | 74.86 | –
100 K | 79.14 | –
100.6 K | 79.46 | –
101.73 K | 80.16 | –
109.97 K | 84.81 | –
119.46 K | 90.1 | –
120 K | 90.41 | –
129.35 K | 95.77 | –
139.36 K | 101.53 | –
140 K | 101.91 | –
149.34 K | 107.42 | –
159.36 K | 113.33 | –
160 K | 113.73 | –
169.39 K | 119.4 | –
179.42 K | 125.52 | –
180 K | 125.91 | –
189.44 K | 131.93 | –
199.45 K | 138.28 | –
200 K | 138.65 | –
209.47 K | 144.93 | –
219.38 K | 151.48 | –
220 K | 151.91 | –
229.4 K | 158.17 | –
239.49 K | 164.92 | –
240 K | 165.3 | –
249.56 K | 172.03 | –
259.56 K | 178.91 | –
260 K | 179.23 | –
269.56 K | 185.84 | –
279.57 K | 192.92 | –
280 K | 193.1 | –
289.32 K | 199.64 | –
296.08 K | 204.14 | –
298.15 K | 205.82 | –
299.29 K | 206.68 | –
300 K | 207.11 | –
305.5 K | 210.87 | –
308.47 K | 212.74 | –
309.21 K | 213.37 | –
315.7 K | 218.21 | –
316.59 K | 218.89 | –
320 K | 221.01 | –
324.75 K | 224.49 | –
325.3 K | 224.82 | –
332.95 K | 230.04 | –
335.34 K | 231.75 | –
340 K | 235.18 | 282.8
340.05 K | – | 282.82
341.17 K | 235.83 | –
345.34 K | 238.85 | –
349.26 K | – | 287
349.41 K | 242.52 | –
356.52 K | 247.86 | 290.4
359.51 K | – | 291.82
360 K | – | 291.97
363.97 K | – | 293.73
364.32 K | – | 293.78
367.03 K | – | 295.01
373.93 K | – | 298.26
380 K | – | 301.01
386.08 K | – | 303.75
398.35 K | – | 309.31
400 K | – | 310.04
410.74 K | – | 314.78
420 K | – | 318.92
423.26 K | – | 320.37
435.5 K | – | 325.69
440 K | – | 327.65
447.89 K | – | 331.01
460 K | – | 336.07
460.14 K | – | 336.12
472.54 K | – | 341.25
477.16 K | – | 343.14
480 K | – | 344.22
487.83 K | – | 347.32
490.73 K | – | 348.64
499.62 K | – | 352.16
500 K | – | 352.28
505.44 K | – | 354.68
509.99 K | – | 356.21
518.82 K | – | 359.99
519.26 K | – | 360.18
520 K | – | 360.47
